Drawing on ChEMBL document CHEMBL6092194, “Development of membrane-targeting chalcone derivatives as antibacterial agents against multidrug-resistant bacteria” (Eur J Med Chem, 2024), this text covers MIC, HC50 and selectivity ratio for 12 compounds.

In data set [1] the test system is Staphylococcus aureus. The data set can be described thus: Antibacterial activity against erythromycin susceptible Staphylococcus aureus ATCC25923 by broth microdilution assay. Type of data set: functional.
In data set [2] the test system is Staphylococcus aureus. The data set can be described thus: Antibacterial activity against penicillin-resistant Staphylococcus aureus ATCC31007 by broth microdilution assay. The class given is functional.
The subject of data set [3] is Staphylococcus aureus. Put plainly: Antibacterial activity against penicillin-resistant Staphylococcus aureus ATCC43300 by broth microdilution assay. Type of data set: functional. Background: Dilution methods test growth across graded concentrations, often in twofold steps.
Data set [4] concerns Bacillus subtilis. Put plainly: Antibacterial activity against penicillin-susceptible Bacillus subtilis ATCC9372 by broth microdilution assay. The class given is functional.
Data set [5] has as its system Enterococcus faecalis. Put plainly: Antibacterial activity against vancomycin susceptible Enterococcus faecalis ATCC29212 by broth microdilution assay. The class given is functional.
Data set [6] has as its system Staphylococcus epidermidis. The data set can be described thus: Antibacterial activity against erythromycin-susceptible Staphylococcus epidermidis ATCC12228 by broth microdilution assay. Type of data set: functional.
Data set [7] relates to Klebsiella pneumoniae. The data set can be described thus: Antibacterial activity against Klebsiella pneumoniae ATCC10031 by broth microdilution assay. Type of data set: functional.
In data set [8] the test system is Acinetobacter baumannii. Put plainly: Antibacterial activity against Acinetobacter baumannii ATCC19606 by broth microdilution assay. The class given is functional.
Data set [9] deals with Escherichia coli. The data set can be described thus: Antibacterial activity against penicillin-susceptible Escherichia coli ATCC25922 by broth microdilution method. The class given is functional.
Data set [10] relates to Pseudomonas aeruginosa. Put plainly: Antibacterial activity against penicillin-susceptible Pseudomonas aeruginosa ATCC27853 by broth microdilution method. The class given is functional.
Data set [11] is described as follows: Hemolytic activity in red blood cells (unknown origin). Type of data set: toxicity, cell-based, Erythrocyte.
Data set [12] can be described thus: Selectivity index, ratio of HC50 for hemolytic activity in red blood cells (unknown origin) to MIC for antibacterial activity against penicillin-resistant Staphylococcus aureus ATCC43300. Type of data set: toxicity, cell-based, RBC. Particulars: read-out: Selectivity Index.

Molecules are shown by their SMILES.

As usually defined, the MIC is the smallest concentration in the dilution series that meets the test's criterion for growth inhibition. High values mean weaker potency, low ones greater potency. The HC50 is the concentration giving 50% haemolysis. Higher therefore signals less damage to red cells. Turning to `COc1ccc(CC(=O)Nc2cc[n+](CCCOc3ccc(C(=O)/C=C/c4ccccc4)cc3)cc2)cc1.[Br-]`, the MIC was 8 µg/mL in data set [1]; 16 µg/mL in [2]; 8 µg/mL in data set [3]; 16 µg/mL in data set [4]; 16 µg/mL in data set [5]; 128 µg/mL in [6]. The MIC in data set [7] was 64 µg/mL; in data set [8], 128 µg/mL; in data set [9], 128 µg/mL; in data set [10], more than 128 µg/mL. The compound also came in with an HC50 in data set [11] of 724 µg/mL. Moreover, the selectivity ratio in data set [12] is 90.5.

Regarding `CCCC[N+](C)(C)CCCOc1ccc(C(=O)/C=C/c2ccccc2)cc1.[Br-]`, the MIC worked out at 16 µg/mL in [1]; 64 µg/mL in data set [2]; 32 µg/mL in data set [3]; 64 µg/mL in data set [4]; 64 µg/mL in data set [5]; 16 µg/mL in data set [6]. The MIC in data set [7] was 128 µg/mL; in data set [8], more than 128 µg/mL; in [9] it was 128 µg/mL; in data set [10] it was more than 128 µg/mL. Besides, the HC50 in data set [11] was found to be 96.3 µg/mL. For the same compound, the selectivity ratio in data set [12] amounted to 3.

As for `O=C(CC12CC3CC(CC(C3)C1)C2)Nc1cc[n+](CCCOc2ccc(C(=O)/C=C/c3ccccc3)cc2)cc1.[Br-]`, the MIC in data set [1] was 32 µg/mL; in data set [2], 64 µg/mL; in [3], 128 µg/mL; in data set [4], 64 µg/mL; in [5], 64 µg/mL; in data set [6] it was 64 µg/mL. Also, the MIC in data set [7], in data set [8], in data set [9] and in data set [10] was more than 128 µg/mL in each case. The compound also yielded an HC50 in data set [11] of 708 µg/mL. In addition, in data set [12], the selectivity ratio was determined as 5.5.

Take `O=C(Cc1ccc(-c2ccccc2)cc1)Nc1cc[n+](CCCOc2ccc(C(=O)/C=C/c3ccccc3)cc2)cc1.[Br-]`: the minimum inhibitory concentration (MIC) in [1] is more than 128 µg/mL; in [2], 128 µg/mL; in data set [3], more than 128 µg/mL; in data set [4], more than 128 µg/mL; in [5], more than 128 µg/mL; in [6] it was more than 128 µg/mL. Besides, the MIC in data set [7], in data set [8], in data set [9] and in data set [10] was more than 128 µg/mL throughout. In [11], this compound returned an HC50 of more than 1280 µg/mL. Also, the selectivity ratio in [12] was more than 10.

As to `CCCCOc1cc[n+](CCCOc2ccc(/C=C/C(=O)c3ccc(OCCC[n+]4ccc(OCCCC)cc4)cc3)cc2)cc1.[Br-].[Br-]`, the MIC was 1 µg/mL in data set [1]; 2 µg/mL in [2]; 4 µg/mL in data set [3]; 1 µg/mL in [4]; 0.5 µg/mL in data set [5]; 1 µg/mL in data set [6]. In addition, the MIC in data set [7] was 8 µg/mL; in [8], 128 µg/mL; in data set [9] it was 16 µg/mL; in data set [10], 64 µg/mL. In data set [11], this compound registered an HC50 of more than 1280 µg/mL. The selectivity ratio in [12] is more than 320.

As for `CCCCCCCC[N+](C)(C)CCCOc1ccc(/C=C/C(=O)c2ccc(OCCC[N+](C)(C)CCCCCCCC)cc2)cc1.[Br-].[Br-]`, the MIC in data set [1] turned out to be 1 µg/mL; in data set [2] it was 1 µg/mL; in [3] it was 1 µg/mL; in data set [4] it was 1 µg/mL; in data set [5], 2 µg/mL; in data set [6] it was 1 µg/mL. Further, the MIC worked out at 16 µg/mL in data set [7], 32 µg/mL in [8], 4 µg/mL in [9] and 16 µg/mL in data set [10]. The 50% haemolytic concentration (HC50) in data set [11] came out at 129 µg/mL. For the same compound, the selectivity ratio in [12] is 129.

Regarding `CCCCCCCC[N+](C)(C)CCCCCCCOc1ccc(C(=O)/C=C/c2ccccc2)cc1.[Br-]`, the MIC in [1] was 2 µg/mL; in [2], 4 µg/mL; in [3], 2 µg/mL; in [4] it was 2 µg/mL; in [5], 4 µg/mL; in data set [6], 2 µg/mL. The MIC in data set [7] is 8 µg/mL; in data set [8] it was 32 µg/mL; in [9], 128 µg/mL; in data set [10], more than 128 µg/mL. Besides, the HC50 in data set [11] is 105 µg/mL. For the same compound, the selectivity ratio in data set [12] worked out at 52.6.

As to `CCCCCCCCCCCC[N+](C)(C)CCCOc1ccc(/C=C/C(=O)c2ccc(OCCC[N+](C)(C)CCCCCCCCCCCC)cc2)cc1.[Br-].[Br-]`, the MIC was 16 µg/mL in [1]; 16 µg/mL in data set [2]; more than 128 µg/mL in data set [3]; more than 128 µg/mL in [4]; more than 128 µg/mL in [5]; 64 µg/mL in [6]. For the same compound, the MIC in data set [7], in [8], in [9] and in data set [10] was more than 128 µg/mL each time. Further, the HC50 in data set [11] amounted to 21.2 µg/mL. In addition, the selectivity ratio in data set [12] was less than 0.2.

With `CCCCCCCCOc1cc[n+](CCCOc2ccc(/C=C/C(=O)c3ccc(OCCC[n+]4ccc(OCCCCCCCC)cc4)cc3)cc2)cc1.[Br-].[Br-]`, the minimal inhibitory concentration (MIC) in [1] worked out at 64 µg/mL; in data set [2] it was 64 µg/mL; in data set [3] it was 32 µg/mL; in data set [4] it was 64 µg/mL; in data set [5], 64 µg/mL; in [6], 32 µg/mL. Besides, the MIC in data set [7] is 64 µg/mL; in [8] it was 128 µg/mL; in [9] it was 128 µg/mL; in data set [10], 128 µg/mL. In addition, the HC50 in data set [11] was determined as 180 µg/mL. Moreover, the selectivity ratio in data set [12] amounted to 5.6.

Regarding `CCCCNC(=O)C[N+](C)(C)CCCOc1ccc(/C=C/C(=O)c2ccc(OCCC[N+](C)(C)CC(=O)NCCCC)cc2)cc1.[Br-].[Br-]`, the MIC in data set [1] was determined as 2 µg/mL; in data set [2], 4 µg/mL; in data set [3] it was 8 µg/mL; in [4], 4 µg/mL; in [5], 8 µg/mL; in [6] it was 4 µg/mL. Moreover, the MIC in [7] was 32 µg/mL; in data set [8], more than 128 µg/mL; in data set [9] it was 16 µg/mL; in [10], more than 128 µg/mL. Also, in data set [11], the HC50 was more than 1280 µg/mL. Moreover, the selectivity ratio in [12] was more than 160.

As for `CCCCCCCCCCCCNC(=O)C[N+](C)(C)CCCOc1ccc(/C=C/C(=O)c2ccc(OCCC[N+](C)(C)CC(=O)NCCCCCCCCCCCC)cc2)cc1.[Br-].[Br-]`, the MIC was more than 128 µg/mL in data set [1]; more than 128 µg/mL in data set [2]; more than 128 µg/mL in [3]; 128 µg/mL in data set [4]; more than 128 µg/mL in data set [5]; more than 128 µg/mL in data set [6]. The MIC in data set [7], in data set [8], in data set [9] and in data set [10] was more than 128 µg/mL in each case. For the same compound, the concentration for 50% haemolysis (HC50) in data set [11] worked out at 703 µg/mL. For the same compound, in [12], the selectivity ratio was less than 5.5.

With `CCCCCC[N+](C)(C)CCCOc1ccc(C(=O)/C=C/c2ccccc2)cc1.[Br-]`, the MIC worked out at 4 µg/mL in data set [1]; 16 µg/mL in data set [2]; 16 µg/mL in data set [3]; 16 µg/mL in data set [4]; 16 µg/mL in data set [5]; 8 µg/mL in [6]. Further, the MIC in data set [7] was 64 µg/mL; in [8], 64 µg/mL; in data set [9], more than 128 µg/mL; in data set [10], more than 128 µg/mL. This compound came in with an HC50 in data set [11] of 49.6 µg/mL. Moreover, in data set [12], the selectivity ratio was 3.1.
